Laboratory results from patent US20250059188A1, “ARYLSULPHONAMIDE COMPOUNDS” (Anaxis Pharma Pty Ltd, priority 2021, published 2025).

Columns and labels:
[1] = target: human MLKL (full length) (Homo sapiens (Human), UniProt Q8NB16); test: KINOMEscan binding assay, human MLKL (full length); conditions: equilibrium dissociation constant
Summary of the method: (§1)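 KINOMEscan competition binding using kinase-tagged T7 phage or HEK-293-produced DNA-tagged protein captured on ligand beads, with eluted protein quantified by qPCR. Compounds were run as an 11-point 3-fold series, top 30,000 nM, in 1% DMSO. Kd was fitted with the Hill equation, slope fixed at −1.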

[2] = target: human RIPK1 (Homo sapiens (Human), UniProt Q13546); test: KINOMEscan binding assay, human RIPK1; conditions: equilibrium dissociation constant
Chain of human RIPK1 (Q13546 whole entry): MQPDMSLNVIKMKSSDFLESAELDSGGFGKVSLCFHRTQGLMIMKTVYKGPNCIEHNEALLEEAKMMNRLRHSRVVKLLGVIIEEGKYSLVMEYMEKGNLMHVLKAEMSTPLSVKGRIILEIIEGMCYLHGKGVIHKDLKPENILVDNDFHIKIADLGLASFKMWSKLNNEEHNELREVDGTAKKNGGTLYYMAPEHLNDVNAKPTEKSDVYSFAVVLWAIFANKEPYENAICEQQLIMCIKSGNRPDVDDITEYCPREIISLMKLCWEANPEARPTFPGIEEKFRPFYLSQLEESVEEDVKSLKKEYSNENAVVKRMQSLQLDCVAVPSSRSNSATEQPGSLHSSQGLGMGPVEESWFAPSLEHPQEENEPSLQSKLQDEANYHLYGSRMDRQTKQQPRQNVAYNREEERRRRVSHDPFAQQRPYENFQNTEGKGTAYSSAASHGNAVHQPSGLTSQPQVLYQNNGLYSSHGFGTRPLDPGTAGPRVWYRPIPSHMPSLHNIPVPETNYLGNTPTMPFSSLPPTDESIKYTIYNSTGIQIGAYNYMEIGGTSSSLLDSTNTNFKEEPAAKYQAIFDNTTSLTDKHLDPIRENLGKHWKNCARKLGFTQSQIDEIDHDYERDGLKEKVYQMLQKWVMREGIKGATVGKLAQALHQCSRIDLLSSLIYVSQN
Summary of the method: as §1

[3] = target: human RIPK3 (Homo sapiens (Human), UniProt Q9Y572); test: KINOMEscan binding assay, human RIPK3; conditions: equilibrium dissociation constant
Chain of human RIPK3 (Q9Y572 whole entry): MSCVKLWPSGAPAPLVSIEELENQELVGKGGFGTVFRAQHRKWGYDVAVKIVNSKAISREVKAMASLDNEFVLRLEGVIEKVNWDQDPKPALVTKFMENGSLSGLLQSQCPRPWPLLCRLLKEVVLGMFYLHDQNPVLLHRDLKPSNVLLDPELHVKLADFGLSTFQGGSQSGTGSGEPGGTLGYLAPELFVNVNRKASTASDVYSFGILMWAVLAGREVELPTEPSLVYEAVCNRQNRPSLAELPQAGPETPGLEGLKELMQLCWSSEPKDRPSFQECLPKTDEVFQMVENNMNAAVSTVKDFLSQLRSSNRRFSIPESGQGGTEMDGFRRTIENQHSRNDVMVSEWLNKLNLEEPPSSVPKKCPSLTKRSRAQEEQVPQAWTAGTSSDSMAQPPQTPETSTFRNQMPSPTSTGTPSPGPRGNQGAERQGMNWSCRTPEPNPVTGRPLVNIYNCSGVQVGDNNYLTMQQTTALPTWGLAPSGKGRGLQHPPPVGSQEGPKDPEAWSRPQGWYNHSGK
Summary of the method: as §1

[4] = test system: U937 human histiocytic leukemia cell line; test: Inhibition of TSQ induced necroptosis in U937 cells (CellTitre-Glo); conditions: Homo sapiens, U-937, TSQ cocktail (TNF, Smac mimetic, Q-VD-OPh), 48 hours, read-out: Inhibition of TSQ-induced necroptosis (IC50 cell-based assay)
Summary of the method: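 Necroptosis was induced with TNF-Fc (100 ng/ml), Smac mimetic (500 nM) and Q-VD-OPh (10 μM) in 20000 U937 cells/well exposed to a 10-point, 3-fold compound series (top 36 μM, 0.3% DMSO). ATP luminescence read after 48 h; 4-parameter fit gave IC50. Parallel TSQ-free wells assessed compound toxicity.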

[5] = test system: U937 cells; test: Counter screen: U937 cell viability without TSQ cocktail (off-target effect); design: species or system human; conditions: Homo sapiens, U-937, compound without TSQ cocktail, read-out: Off-target effect (IC50 cell-based assay)
Summary of the method: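 Off-target viability counter screen: compounds titrated 36 μM down 1:3 over 10 points (0.3% DMSO) on 20,000 U937 cells/well, no TNF/Smac mimetic/Q-VD-OPh added, 48 h incubation. ATP-based CellTiter-Glo luminescence, four-parameter logistic IC50.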

Chain of human MLKL (full length) (Q8NB16 whole entry): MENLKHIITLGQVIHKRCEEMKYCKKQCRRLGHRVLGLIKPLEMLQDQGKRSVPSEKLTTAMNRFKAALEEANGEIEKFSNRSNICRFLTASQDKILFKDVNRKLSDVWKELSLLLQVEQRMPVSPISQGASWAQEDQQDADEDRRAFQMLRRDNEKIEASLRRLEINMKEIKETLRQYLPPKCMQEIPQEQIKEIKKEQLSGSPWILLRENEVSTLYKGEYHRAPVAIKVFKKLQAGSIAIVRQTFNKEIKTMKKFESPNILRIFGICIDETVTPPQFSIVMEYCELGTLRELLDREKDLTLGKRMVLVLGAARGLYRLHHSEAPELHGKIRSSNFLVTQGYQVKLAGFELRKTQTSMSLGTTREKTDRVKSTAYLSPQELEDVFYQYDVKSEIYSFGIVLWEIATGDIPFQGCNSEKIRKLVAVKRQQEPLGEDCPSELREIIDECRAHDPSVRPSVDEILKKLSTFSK

Kd [1] [µM] | Kd [2] [µM] | Kd [3] [µM] | Structure (SMILES) | IC50 [4] [µM] | IC50 [5] [µM]
< 0.001 | > 10 | > 10 | CC#Cc1cnc(N)c2c(-c3ccc(NS(=O)(=O)C(F)F)c(O[C@@H](C)c4ccc(F)cc4)c3)nn(C)c12 [Compound 56, (S)-N-(4-(4-amino-1-methyl-7-(prop-1-yn-1-yl)-1H-pyrazolo[4,3-c]pyridin-3-yl)-2-(1-(4-fluorophenyl)ethoxy)phenyl)-1,1-difluoromethanesulfonamide] | 0.01 to 1 | > 10
0.001 to 0.1 | > 10 | > 10 | C[C@H](Oc1cc(-c2nn(C)c3c(-c4ccnc(C(F)F)c4)cnc(N)c23)ccc1NS(=O)(=O)C(F)F)c1ccc(F)cc1 [Compound 57, (S)-N-(4-(4-amino-7-(2-(difluoromethyl)pyridin-4-yl)-1-methyl-1H-pyrazolo[4,3-c]pyridin-3-yl)-2-(1-(4-fluorophenyl)ethoxy)phenyl)-1,1-difluoromethanesulfonamide] | 0.01 to 1 | > 10
< 0.001 | > 10 | > 10 | C[C@H](Oc1cc(-c2nn(C)c3c(-c4cnn(CCN5CC(C)(C)C5)c4)cnc(N)c23)ccc1NS(=O)(=O)C(F)F)c1ccc(F)cc1 [Compound 75, (S)-N-(4-(4-amino-7-(1-(2-(3,3-dimethylazetidin-1-yl)ethyl)-1H-pyrazol-4-yl)-1-methyl-1H-pyrazolo[4,3-c]pyridin-3-yl)-2-(1-(4-fluorophenyl)ethoxy)phenyl)-1,1-difluoromethanesulfonamide] | < 0.01 | > 10
< 0.001 | > 10 | > 10 | CC(C)N1CC(n2cc(-c3cnc(N)c4c(-c5ccc(NS(=O)(=O)C(F)F)c(O[C@@H](C)c6ccc(F)cc6)c5)nn(C)c34)cn2)C1 [Compound 76, (S)-N-(4-(4-amino-7-(1-(1-isopropylazetidin-3-yl)-1H-pyrazol-4-yl)-1-methyl-1H-pyrazolo[4,3-c]pyridin-3-yl)-2-(1-(4-fluorophenyl)ethoxy)phenyl)-1,1-difluoromethanesulfonamide] | < 0.01 | > 10
< 0.001 | > 10 | > 10 | CNCCn1cc(-c2cnc(N)c3c(-c4ccc(NS(=O)(=O)C(F)F)c(O[C@@H](C)c5ccc(F)cc5)c4)nn(C)c23)cn1 [Compound 82, (S)-N-(4-(4-amino-1-methyl-7-(1-(2-(methylamino)ethyl)-1H-pyrazol-4-yl)-1H-pyrazolo[4,3-c]pyridin-3-yl)-2-(1-(4-fluorophenyl)ethoxy)phenyl)-1,1-difluoromethanesulfonamide] | 0.01 to 1 | > 10
0.001 to 0.1 | > 10 | > 10 | C[C@H](Oc1cc(-c2nn(C)c3c(-c4cc(C#N)n(C)c4)cnc(N)c23)ccc1NS(=O)(=O)C(F)F)c1ccc(F)cc1 [Compound 83, (S)-N-(4-(4-amino-7-(5-cyano-1-methyl-1H-pyrrol-3-yl)-1-methyl-1H-pyrazolo[4,3-c]pyridin-3-yl)-2-(1-(4-fluorophenyl)ethoxy)phenyl)-1,1-difluoromethanesulfonamide] | 0.01 to 1 | > 10
0.001 to 0.1 | > 10 | > 10 | C[C@H](Oc1cc(-c2nn(C)c3c(-c4cccc(Cl)c4)cnc(N)c23)ccc1NS(=O)(=O)C(F)F)c1ccc(F)cc1 [Compound 84, (S)-N-(4-(4-amino-7-(3-chlorophenyl)-1-methyl-1H-pyrazolo[4,3-c]pyridin-3-yl)-2-(1-(4-fluorophenyl)ethoxy)phenyl)-1,1-difluoromethanesulfonamide] | 1 to 10 | > 10
0.001 to 0.1 | > 10 | > 10 | C[C@H](Oc1cc(-c2nn(C)c3c(-c4ccccc4Cl)cnc(N)c23)ccc1NS(=O)(=O)C(F)F)c1ccc(F)cc1 [Compound 85, (S)-N-(4-(4-amino-7-(2-chlorophenyl)-1-methyl-1H-pyrazolo[4,3-c]pyridin-3-yl)-2-(1-(4-fluorophenyl)ethoxy)phenyl)-1,1-difluoromethanesulfonamide] | 1 to 10 | > 10
0.001 to 0.1 | > 10 | > 10 | C[C@H](Oc1cc(-c2nn(C)c3c(-c4ccccc4)cnc(N)c23)ccc1NS(=O)(=O)C(F)F)c1ccc(F)cc1 [Compound 86, (S)-N-(4-(4-amino-1-methyl-7-phenyl-1H-pyrazolo[4,3-c]pyridin-3-yl)-2-(1-(4-fluorophenyl)ethoxy)phenyl)-1,1-difluoromethanesulfonamide] | 0.01 to 1 | > 10
0.001 to 0.1 | > 10 | > 10 | C[C@H](Oc1cc(-c2nn(C)c3c(-c4ccc(Cl)cc4)cnc(N)c23)ccc1NS(=O)(=O)C(F)F)c1ccc(F)cc1 [Compound 87, (S)-N-(4-(4-amino-7-(4-chlorophenyl)-1-methyl-1H-pyrazolo[4,3-c]pyridin-3-yl)-2-(1-(4-fluorophenyl)ethoxy)phenyl)-1,1-difluoromethanesulfonamide] | 1 to 10 | > 10

The next lines start with the compound.

Structure (SMILES) | Kd [1] [µM] | Kd [2] [µM] | Kd [3] [µM] | IC50 [4] [µM] | IC50 [5] [µM]
C[C@H](Oc1cc(-c2nn(C)c3c(C#CC4CCOCC4)cnc(N)c23)ccc1NS(=O)(=O)C(F)F)c1ccc(F)cc1 [Compound 58, (S)-N-(4-(4-amino-1-methyl-7-((tetrahydro-2H-pyran-4-yl)ethynyl)-1H-pyrazolo[4,3-c]pyridin-3-yl)-2-(1-(4-fluorophenyl)ethoxy)phenyl)-1,1-difluoromethanesulfonamide] | < 0.001 | > 10 | > 10 | 0.01 to 1 | > 10
C[C@H](Oc1cc(-c2nn(C)c3c(-c4cnn(C5CCNCC5)c4)cnc(N)c23)ccc1NS(=O)(=O)C(F)F)c1ccc(F)cc1 [Compound 59, (S)-N-(4-(4-amino-1-methyl-7-(1-(piperidin-4-yl)-1H-pyrazol-4-yl)-1H-pyrazolo[4,3-c]pyridin-3-yl)-2-(1-(4-fluorophenyl)ethoxy)phenyl)-1,1-difluoromethanesulfonamide] | < 0.001 | > 10 | > 10 | 0.01 to 1 | > 10
C[C@H](Oc1cc(-c2nn(C)c3c(-c4cnn(C5CC6CCC(C5)N6C)c4)cnc(N)c23)ccc1NS(=O)(=O)C(F)F)c1ccc(F)cc1 (stereo partly drawn) [Compound 73, N-(4-(4-amino-1-methyl-7-(1-(8-methyl-8-azabicyclo[3.2.1]octan-3-yl)-1H-pyrazol-4-yl)-1H-pyrazolo[4,3-c]pyridin-3-yl)-2-((S)-1-(4-fluorophenyl)ethoxy)phenyl)-1,1-difluoromethanesulfonamide] | < 0.001 | > 10 | > 10 | 0.01 to 1 | > 10
C[C@H](Oc1cc(-c2nn(C)c3c(-c4cnn(C5CCCNCC5)c4)cnc(N)c23)ccc1NS(=O)(=O)C(F)F)c1ccc(F)cc1 (stereo partly drawn) [Compound 74, N-(4-(4-amino-7-(1-(azepan-4-yl)-1H-pyrazol-4-yl)-1-methyl-1H-pyrazolo[4,3-c]pyridin-3-yl)-2-((S)-1-(4-fluorophenyl)ethoxy)phenyl)-1,1-difluoromethanesulfonamide] | < 0.001 | > 10 | > 10 | 0.01 to 1 | > 10
C[C@H](Oc1cc(-c2nn(C)c3c(-c4cnn(C5CN(CC(F)(F)F)C5)c4)cnc(N)c23)ccc1NS(=O)(=O)C(F)F)c1ccc(F)cc1 [Compound 77, (S)-N-(4-(4-amino-1-methyl-7-(1-(1-(2,2,2-trifluoroethyl)azetidin-3-yl)-1H-pyrazol-4-yl)-1H-pyrazolo[4,3-c]pyridin-3-yl)-2-(1-(4-fluorophenyl)ethoxy)phenyl)-1,1-difluoromethanesulfonamide] | < 0.001 | > 10 | > 10 | < 0.01 | > 10
C[C@H](Oc1cc(-c2nn(C)c3c(-c4cnn(C5CC6(CNC6)C5)c4)cnc(N)c23)ccc1NS(=O)(=O)C(F)F)c1ccc(F)cc1 [Compound 78, (S)-N-(4-(7-(1-(2-azaspiro[3.3]heptan-6-yl)-1H-pyrazol-4-yl)-4-amino-1-methyl-1H-pyrazolo[4,3-c]pyridin-3-yl)-2-(1-(4-fluorophenyl)ethoxy)phenyl)-1,1-difluoromethanesulfonamide] | < 0.001 | > 10 | > 10 | 0.01 to 1 | > 10
C[C@H](Oc1cc(-c2nn(C)c3c(-c4cnn(CC5CCCN5)c4)cnc(N)c23)ccc1NS(=O)(=O)C(F)F)c1ccc(F)cc1 (stereo partly drawn) [Compound 88, N-(4-(4-amino-1-methyl-7-(1-(pyrrolidin-2-ylmethyl)-1H-pyrazol-4-yl)-1H-pyrazolo[4,3-c]pyridin-3-yl)-2-((S)-1-(4-fluorophenyl)ethoxy)phenyl)-1,1-difluoromethanesulfonamide] | < 0.001 | > 10 | > 10 | 0.01 to 1 | > 10
